# Earlier results in patent US4307083A, “LRF Antagonists” (The Salk Institute for Biological Studies, priority 1980, dated 1981).
# Non-standard residues stand in square brackets, D forms with d. pGlu = O=C1CC[C@@H](C(=O)O)N1
# System: release of gonadotropins
# Conditions: versus des-His2 peptide with Gly instead of D-Ala at position 6
substance,measurement,value
[pGlu]WSY[dA]LRPG-NH2,Potency as inhibitor of gonadotropin release relative to the same peptide with Gly in the 6-position,3 times
